Reference: PubChem BioAssay AID1963830 (Molecular Pharmacology Branch, DTP, NCI, 2024)

Test system: 922993-354-T-J3-PDC complex spheroid viability
Assay: Anticancer human tumor 922993-354-T-J3-PDC patient-derived endometrial carcinoma cell line growth inhibition [POLQ]
Settings: for IC50: curve of first compound; for viability, T/C: stronger effect = lower value; active means viability on the fitted dose curve at most 10% of control; inactive means the rest
Description: Multicellular complex tumor spheroid response to Polymerase (POL) inhibitors (novobiocin, ART-558, RP6685) in combination with a variety of drugs and investigational agents in selected tumor cell lines
The POL inhibitors (novobiocin, ART-558, and RP6685) were evaluated both individually and in combination with standard of care and investigational anticancer small molecules within a complex spheroid model of solid tumors. . Complex spheroids include a stromal component modeled by human endothelial cells (HUVEC) and fibroblasts modeled by human mesenchymal stem cells (MSCs). The concentration ranges selected for each drug and investigational agent were based upon clinically achievable concentrations if the clinical Cmax of the agent was known.
Compounds. The drugs and investigational agents: novobiocin (NSC847541), ART-558 (NSC835418), RP-6685 (NSC848927), peposertib (NSC802822), ceralasertib (NSC780249), elimusertib (NSC800525), camonsertib (NSC841442), AZD-1390 (NSC803789), olaparib (NSC753686), talazoparib (NSC767125), rucaparib (NSC756644), sotorasib (NSC818433), MRTX-1133 (NSC836407), SN-38 (NSC673596), topotecan (NSC609699), epotoside (NSC141540), doxorubicin (NSC123127), gemcitabine (NSC613327), 5-fluorouracil (NSC19893), paclitaxel (NSC125973), vemurafenib (NSC761431), MSA-2 (NSC828583), SN-011 (NSC837082), adavosertib (NSC754352), prexasertib (NSC758257), carboplatin (NSC241240) and oxaliplatin (NSC266046), were obtained from the National Cancer Institute (NCI) Developmental Therapeutics Program Chemical Repository (21). The FDA-approved anticancer drug set is available from the Developmental Therapeutics Program at https://dtp.cancer.gov/organization/dscb/obtaining/. […] The stock solutions were prepared in dimethyl sulfoxide (DMSO, Sigma-Aldrich, St. Louis, MO, cat. D2650), except for the platinum compounds which were prepared in saline (Quality Biological, Gaithersburg, MD, cat. 114-055-101), at 800-fold the tested concentration and stored at -70 degrees C prior to their use. All drugs and investigational agents were tested over a range starting from a high concentration at or near the clinical Cmax and decreasing in half-log increments. If the clinical Cmax for an agent had not been determined, the highest concentration tested was 10 microM, except for SN-38, which was tested at a high concentration of 1 microM.
Cell Culture. All cells were maintained in an incubator at 37 degrees C and 5% CO2 with 95% humidity. The PDC lines were cultured according to standard operating procedures established by the NCI PDMR (https://pdmr.cancer.gov). Table 3 of the manuscript, lists the cell lines along with the number of the three cell types plated to form the mct-spheroids and media for tumor cell growth. After thawing, all PDC lines, except 997537-175-T-J1-PDC and 415267-285-R-J2-PDC, were cultured in Matrigel-coated flasks prepared with a working solution of 1X Ham's F-12 nutrient mix, without supplementation (Thermo Fisher Scientific, cat. 11765054), 100 U/mL penicillin-streptomycin (Thermo Fisher Scientific, cat. 15140122), and 2.5% Matrigel (Corning Inc., Corning, NY, cat. 354248) for the first three passages. The two PDC lines 997537-175-T-J1-PDC and 415267-285-R-J2-PDC were cultured on uncoated flasks. The 857933-349-R-J2-PDC line was cultured in 6C/Colon 1B media containing advanced DMEM/F-12 (Thermo Fisher Scientific, cat. 12634028), 10 mM HEPES (Thermo Fisher Scientific, cat. 15630080), 1X GlutaMAX supplement (Thermo Fisher Scientific, cat. 35050061), 0.1 mg/mL primocin (InvivoGen, San Diego, CA, cat. ant-pm-2), 10% defined fetal bovine serum, heat inactivated (HyClone Laboratories Inc., Logan, UT, cat. SH30070.03HI), 50% L-WRN conditioned media (ATCC, cat. CRL-3276), 1.25 mM N-Acetyl-L-cysteine (Sigma-Aldrich, cat. A9165), 10 mM nicotinamide (Sigma-Aldrich, cat. N0636), 1X B-27 supplement (Thermo Fisher Scientific, cat. 17504044), 1X N-2 supplement (Thermo Fisher Scientific, cat. […]
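Further: spheroids exposed to the agents for one week.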
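Wherever viability, T/C is given: 100% = DMSO vehicle control wells.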

CC(=O)O[C@H]1C(=O)[C@@]2(C)[C@H]([C@H](OC(=O)c3ccccc3)[C@]3(O)C[C@H](OC(=O)[C@H](O)[C@@H](NC(=O)c4ccccc4)c4ccccc4)C(C)=C1C3(C)C)[C@]1(OC(C)=O)CO[C@@H]1C[C@@H]2O + COC1C(OC(N)=O)C(O)C(Oc2ccc3c(O)c(NC(=O)c4ccc(O)c(CC=C(C)C)c4)c(=O)oc3c2C)OC1(C)C
2640 nM: IC50 (second compound 0.0316 µM)
inactive: viability, T/C (second compound 0.0316 µM, first compound 0.00949 µM) 97% | viability, T/C (second compound 0.0316 µM, first compound 0.03 µM) 96.3% | viability, T/C (second compound 0.0316 µM, first compound 0.0949 µM) 95.1% | viability, T/C (second compound 0.0316 µM, first compound 0.3 µM) 105% | viability, T/C (second compound 0.0316 µM, first compound 0.949 µM) 85.5% | viability, T/C (second compound 0.0316 µM, first compound 3 µM) 45.6% | viability, T/C (second compound 0.1 µM, first compound 0.00949 µM) 102% | viability, T/C (second compound 0.1 µM, first compound 0.03 µM) 101% | viability, T/C (second compound 0.1 µM, first compound 0.0949 µM) 107% | viability, T/C (second compound 0.1 µM, first compound 0.3 µM) 106% | viability, T/C (second compound 0.1 µM, first compound 0.949 µM) 83.6% | viability, T/C (second compound 0.1 µM, first compound 3 µM) 55.8% | viability, T/C (second compound 0.316 µM, first compound 0.00949 µM) 97.1% | viability, T/C (second compound 0.316 µM, first compound 0.03 µM) 118% | viability, T/C (second compound 0.316 µM, first compound 0.0949 µM) 104% | viability, T/C (second compound 0.316 µM, first compound 0.3 µM) 97.7% | viability, T/C (second compound 0.316 µM, first compound 0.949 µM) 80.5% | viability, T/C (second compound 0.316 µM, first compound 3 µM) 49.8% | viability, T/C (second compound 1 µM, first compound 0.00949 µM) 96.9% | viability, T/C (second compound 1 µM, first compound 0.03 µM) 99.4% | viability, T/C (second compound 1 µM, first compound 0.0949 µM) 104% | viability, T/C (second compound 1 µM, first compound 0.3 µM) 104% | viability, T/C (second compound 1 µM, first compound 0.949 µM) 79.9% | viability, T/C (second compound 1 µM, first compound 3 µM) 53.2% | viability, T/C (second compound 3.16 µM, first compound 0.00949 µM) 99.2% | viability, T/C (second compound 3.16 µM, first compound 0.03 µM) 92.8% | viability, T/C (second compound 3.16 µM, first compound 0.0949 µM) 101% | viability, T/C (second compound 3.16 µM, first compound 0.3 µM) 99.3% | viability, T/C (second compound 3.16 µM, first compound 0.949 µM) 76.9% | viability, T/C (second compound 3.16 µM, first compound 3 µM) 54.9% | viability, T/C (second compound 10 µM, first compound 0.00949 µM) 84.7% | viability, T/C (second compound 10 µM, first compound 0.03 µM) 82.2% | viability, T/C (second compound 10 µM, first compound 0.0949 µM) 94.9% | viability, T/C (second compound 10 µM, first compound 0.3 µM) 68.9% | viability, T/C (second compound 10 µM, first compound 0.949 µM) 64% | viability, T/C (second compound 10 µM, first compound 3 µM) 43.3%
> 3000 nM: IC50 (second compound 0.1 µM) | IC50 (second compound 1 µM) | IC50 (second compound 3.16 µM)
2990 nM: IC50 (second compound 0.316 µM)
2000 nM: IC50 (second compound 10 µM)

COc1cccc2c1C(=O)c1c(O)c3c(c(O)c1C2=O)CC(O)(C(=O)CO)CC3OC1CC(N)C(O)C(C)O1 (centres undefined) + COC1C(OC(N)=O)C(O)C(Oc2ccc3c(O)c(NC(=O)c4ccc(O)c(CC=C(C)C)c4)c(=O)oc3c2C)OC1(C)C
899 nM: IC50 (second compound 1 µM)
723 nM: IC50 (second compound 10 µM)
inactive: viability, T/C (second compound 0.0316 µM, first compound 0.0316 µM) 104% | viability, T/C (second compound 0.0316 µM, first compound 0.1 µM) 88.8% | viability, T/C (second compound 0.0316 µM, first compound 0.316 µM) 80.7% | viability, T/C (second compound 0.0316 µM, first compound 1 µM) 53.3% | viability, T/C (second compound 0.0316 µM, first compound 3.16 µM) 33.9% | viability, T/C (second compound 0.0316 µM, first compound 10 µM) 10.1% | viability, T/C (second compound 0.1 µM, first compound 0.0316 µM) 97.2% | viability, T/C (second compound 0.1 µM, first compound 0.1 µM) 101% | viability, T/C (second compound 0.1 µM, first compound 0.316 µM) 88.6% | viability, T/C (second compound 0.1 µM, first compound 1 µM) 48% | viability, T/C (second compound 0.1 µM, first compound 3.16 µM) 21.8% | viability, T/C (second compound 0.1 µM, first compound 10 µM) 8.62% | viability, T/C (second compound 0.316 µM, first compound 0.0316 µM) 105% | viability, T/C (second compound 0.316 µM, first compound 0.1 µM) 91.9% | viability, T/C (second compound 0.316 µM, first compound 0.316 µM) 77.3% | viability, T/C (second compound 0.316 µM, first compound 1 µM) 50.7% | viability, T/C (second compound 0.316 µM, first compound 3.16 µM) 28.7% | viability, T/C (second compound 0.316 µM, first compound 10 µM) 12.9% | viability, T/C (second compound 1 µM, first compound 0.0316 µM) 102% | viability, T/C (second compound 1 µM, first compound 0.1 µM) 96.1% | viability, T/C (second compound 1 µM, first compound 0.316 µM) 68.7% | viability, T/C (second compound 1 µM, first compound 1 µM) 45.8% | viability, T/C (second compound 1 µM, first compound 3.16 µM) 30.9% | viability, T/C (second compound 1 µM, first compound 10 µM) 10.7% | viability, T/C (second compound 3.16 µM, first compound 0.0316 µM) 94.5% | viability, T/C (second compound 3.16 µM, first compound 0.1 µM) 100% | viability, T/C (second compound 3.16 µM, first compound 0.316 µM) 87.1% | viability, T/C (second compound 3.16 µM, first compound 1 µM) 44.7% | viability, T/C (second compound 3.16 µM, first compound 3.16 µM) 21.6% | viability, T/C (second compound 3.16 µM, first compound 10 µM) 10.8% | viability, T/C (second compound 10 µM, first compound 0.0316 µM) 86.4% | viability, T/C (second compound 10 µM, first compound 0.1 µM) 90.8% | viability, T/C (second compound 10 µM, first compound 0.316 µM) 68.7% | viability, T/C (second compound 10 µM, first compound 1 µM) 41.1% | viability, T/C (second compound 10 µM, first compound 3.16 µM) 22.8% | viability, T/C (second compound 10 µM, first compound 10 µM) 10.4%
1080 nM: IC50 (second compound 0.316 µM)
893 nM: IC50 (second compound 3.16 µM)
1350 nM: IC50 (second compound 0.0316 µM)
997 nM: IC50 (second compound 0.1 µM)
